According to a melting point compilation (Tetko et al.; mined from patent text by program, amines drawn as free bases though some values may be those of a salt):

SMILES	melting point [°C]
S=C(NCc1ccccc1)Nc1ccc(NC(=S)NCc2ccccc2)cc1	198
COCCN1CCN(Cc2ccc3c(c2)-c2[nH]nc(-c4ccsc4)c2C3)CC1	140 to 142
Nc1nc2ccccc2c2c1nc(O)n2Cc1ccccc1	> 250
O=C(NCCCC[C@H](Nc1nc2ccc(Cl)cc2cc1C(=O)O)C(=O)O)OCc1ccccc1	152 to 154
COc1ccc2cc3c(CN)nn(C)c3nc2c1	119 to 120
COc1ccc2c(c1)Oc1cscc1C(N1CCN(C)CC1)=N2	188 to 189
Clc1ccc(C#Cc2c3ccccc3c(C#Cc3ccc(Cl)cc3)c3ccccc23)cc1	268
O=C(NCc1ccc2c(c1)OCO2)c1ccc2[nH]c(=O)n(Cc3cccs3)c(=O)c2c1	270
CCOP(=O)(OCC)C(F)(F)c1ccc(CN(Cc2ccc(C(F)(F)P(=O)(OCC)OCC)cc2)C(=O)c2ccccc2)cc1	87 to 89
C#CCNC(=O)N1CC(Oc2ccc(Cl)cc2)C1	120 to 122
Cc1nc(C(F)(F)F)ccc1C(=O)C1=C(O)C2CC2C(C)(S(C)=O)C1=O (configuration not stated)	160
CCCCCCCCC=CCCCCCCCCCCCC(=O)NCCOC(C)=O	51
Cc1cn(-c2cc3c(cc2C(F)(F)F)[nH]c(=O)c2n[nH]c(=O)n23)c(C)n1	> 330
O=C(O)COc1cccc2c1CCc1sc(SC(c3ccccc3)c3ccccc3)nc1-2	176 to 179
COC(=O)C(Oc1ccc(Cl)cc1)c1ccc(Sc2ccc(Cl)cc2)cc1 (configuration not stated)	90.5 to 94.5
CSC(=C[N+](=O)[O-])S(C)=O (configuration not stated)	137 to 143
Cc1cc(-c2ncn(Cc3ccc(F)cc3)n2)sc1C(=O)NCc1cccnc1	154 to 155
COC(=O)C1=C(C)NC(C)=C(C(=O)OCCN2CCN(C(c3ccccc3)c3ccccc3)CC2)C1c1cccc([N+](=O)[O-])c1 (configuration not stated)	166 to 169
O=c1ccn(C2C=CC(CO)O2)c(=O)[nH]1 (configuration not stated)	150 to 151
CS(=O)(=O)Nc1cncc(C(=NCCc2ccccc2Cl)NC#N)c1	205
CC(C)(N)CNCCCCCCNCC(C)(C)N	25 to 35
O=S(=O)(CC=Cc1ccccc1)CCCO	86
COc1ccc(/C=C/c2c(Cl)cncc2Cl)c2c1OC(C)(C)C2	114 to 118
CC1(CN=[N+]=[N-])COC(Cn2ccnc2)(c2ccc(Cl)cc2Cl)OC1 (configuration not stated)	132 to 133
CNc1nc2c(s1)C(=O)CCC2	180 to 182
COc1ccc(-c2[nH]cc(C(C)=O)c2N)cc1	198 to 200

SMILES	melting point [°C]
OCCn1c(NC2CCN(Cc3ccccc3)CC2)nc2cccnc21	126
Cc1sc(C)c(CCl)c1CCl	68 to 70
CCN(C=O)c1ccccc1C(=O)COC(=O)c1ccccc1	78 to 80
Cc1ccc2c(=O)c(O)cn(C)c2c1	268
O=C1NCN(c2ccccc2)C12CCN(CCCn1cnc3ccccc31)CC2	191
CC(NC(=O)C(CS)C(C)c1ccc(O)cc1)C(=O)O (configuration not stated)	72
Brc1cc(Br)c(COCc2cc(Br)c(Br)cc2Br)cc1Br	162 to 164
COc1ccc(Cl)cc1-n1c(-c2cc(C(F)(F)F)cc(C(F)(F)F)c2)n[nH]c1=O	206 to 207
CCCCc1oc2ccccc2c1C(=O)NCc1ccc2c(Br)c(OCC(=O)OC)ccc2c1	140 to 141
COc1ccccc1NC(=O)c1cccc(CO)c1	102
COc1cc(-n2nc(C)n(C(F)F)c2=O)c(F)cc1Cl	86 to 88
Nc1c(Cl)cc(C(=O)Cl)cc1Cl	165
FC(F)(F)Oc1ccc(C=Cc2nc(CNc3ccc(CCCCn4ccnn4)cc3)co2)cc1	103 to 105
FC(F)(F)Oc1cccc(-c2nc(-c3ccccn3)no2)c1	86 to 88
Cc1oc(-c2ccccc2)nc1COc1ccc(Cn2cc(CCCC(=O)O)c(-c3ccccc3)n2)cc1	118 to 119
Cc1nc2nc(SCc3ccccc3)nn2c(Cl)c1Cl	103 to 105
COc1ccccc1NC(=O)Nc1nc(O)ncc1F	247 to 250
Cc1ccc(NC(=O)NCc2cccc3c2C(=O)N(C2CCC(=O)NC2=O)C3=O)cc1C (configuration not stated)	222 to 224
Clc1cccc(Oc2ccc(N3CCNCC3)nc2)c1	70 to 73
CCOC(=O)c1cn(C)c2cc(F)ccc2c1=O	164 to 166
CCCCn1ncc(/C=C(\Cc2cc3c(cc2OC)CCO3)C(=O)O)c1-c1ccc(Cl)cc1OCc1ccccc1C(=O)O	116 to 118
Cn1cc(C(=O)NCc2ccc(Cl)cc2)c(=O)c2cc(CN=[N+]=[N-])ccc21	219 to 220
Cn1c(COc2ccc(CC3SC(=O)NC3=O)cc2)nc2cc(Cl)cnc21 (configuration not stated)	203 to 205
CC(=O)Oc1c(C)sc2ccc(C(F)(F)F)cc12	59 to 60
Cn1c(CCCO)nc2ccccc21	107
NC(=O)Cc1c[nH]c2cc(OCc3ccccc3)ccc12	189 to 192

SMILES	melting point [°C]
O=C(O)/C=C/C=C/C=C/C1=Cc2ccccc2OC1	206 to 208
COc1ccc(Oc2c(OC)cc([N+](=O)[O-])c3nccc(C)c23)cc1	158 to 160
CSc1c(Cl)c(-c2cc(SC(C)C(=O)O)c(Cl)cc2Cl)nn1C (configuration not stated)	180
CCOC(=O)C(=O)N(c1ccccc1[N+](=O)[O-])C(C)(C)C	73 to 74
CCN(c1ccc(OC)cc1)c1cc(NC)nc(C)n1	116 to 118
NC(=O)c1cccc(CSCCNC(=O)c2c(Cl)cccc2Cl)c1	148 to 150
CC(C)N1Cc2ccc(F)cc2N(CCN2CC=C(c3c[nH]c4cc(F)ccc34)CC2)S1(=O)=O	101 to 103
COC(=O)N(C)N=C(c1ccc(Cl)cc1)C(C)(C)C	58 to 60
O=c1ccn([C@H]2C=C[C@@H](O)CC2)c(=O)[nH]1 (racemic)	161 to 162
O=C(Nc1cccc(-c2ccnc3c(C(=O)c4cccs4)cnn23)c1)OCc1ccccn1	121 to 125
CCOc1ccc2c(c1)CC(=O)c1cc(C(C)C(N)=O)ccc1S2 (configuration not stated)	128 to 130
CCCCCCCCCCCCCCCCO[C@@H]1CCCO[C@H]1COP(=O)([O-])OCC[N+](C)(C)C (relative stereo)	85 to 92
CC1CCc2c(N3CCN(C)CC3)c(F)cc3c(=O)c(C(=O)O)cn1c23 (configuration not stated)	262 to 263
CNS(=O)(=O)c1ccsc1C(=O)OC	115 to 122
Fc1ccc(-c2cn([C@H]3CN4CCC3CC4)nn2)cc1	139
Fc1ccc2[nH]cc(CCc3ccncc3)c2c1	128
N#Cc1ccc(OCCOc2ccc(C#N)cc2)cc1	196 to 197
COC(OC)C(=O)NCc1ccc(C)cc1	45.8
CC1=C(/C=C/C(C)=C/C=C/C(C)=C\C(=O)O)C(C)(C)C(O)C=C1 (configuration not stated)	108 to 110
CC(COc1ccc(CC2SC(=O)NC2=O)cc1)NCC(O)c1cccc(Cl)c1 (configuration not stated)	100 to 125
COC(=O)C1CC(C#N)(c2ccc(OC)c(OC)c2)CCC1=O (configuration not stated)	102 to 108
CC(C)n1nc(-c2ncc(N)nc2-c2ccccc2)ccc1=O	204 to 206
CCOc1ccccc1C1(O)C(=O)Nc2cc(C)c(Cl)cc21 (configuration not stated)	253
Nc1ncnc2c1c(-c1ccc(Oc3ccccc3)cc1)cn2C1CCCC1	178 to 179
CSCCCCCC=C(NC(=O)C1CC1(C)C)C(=O)O (configuration not stated)	82 to 84
Fc1ccc(Cn2c(NC3CCN(CCOc4ccc5ccccc5n4)CC3)nc3ccccc32)cc1	150

SMILES	melting point [°C]
CCOc1cc2c(cc1S(=O)(=O)NC(=O)NC)C(CNC(=O)c1cc(Cl)ccc1OC)CCO2 (configuration not stated)	207 to 208
NC(=O)c1c[nH]c2cc(Cl)c([N+](=O)[O-])cc2c1=O	298 to 300
COC(=O)C#CC(=O)c1ccc(C)cc1	44 to 47
CC(=O)C(=Cc1ccccc1[N+](=O)[O-])C(=O)OCCCl	82 to 84
CCCC(=O)NCCCC1c2ccccc2C=Cc2ccccc21	76 to 80
Cc1ccnc(CSCCNc2ncc(Cc3cccnc3)c(=O)[nH]2)c1Br	81 to 85
COC(=O)C(Cc1ccccc1)NC(=S)Nc1nc(C)cs1 (racemic)	131 to 132
CCCCC(=O)N(Cc1ccc(-c2ccccc2-c2nnn[nH]2)cc1)C(C(=O)OCc1ccccc1)C(C)C (configuration not stated)	106 to 108
CC(=CCCCC(C)(C)O)c1cccc(C=Cc2cc(O)cc(O)c2)c1	55 to 60
CC(C)CNS(=O)(=O)c1ccc2c(c1)C=C(C(=O)O)C(C(F)(F)F)O2 (configuration not stated)	191 to 192
Cc1c(C(=O)O)ccc(S(C)(=O)=O)c1S(C)(=O)=O	192 to 198
CCOc1ccccc1-c1nc2nc(SC)ncc2c(=O)[nH]1	224 to 226
N#CCCCCCC(=NO)c1ccc(Cl)cc1	58 to 59
CCC1CC2C3CCC4=CC(=O)CCC4C3CCC2(C)C1OC(=O)COC(C)=O (configuration not stated)	98 to 100
N#Cc1ccc2oc(CCc3ccc(CO)cc3)cc2c1	72 to 73
CCCCOc1cc(CCC(=O)O)ccc1-c1cccc(N(C)C(=O)Nc2ccccc2)c1	134 to 136
O=C(Nc1cccc(-n2nc(C(F)(F)F)cc2C(F)(F)F)c1)c1cc([N+](=O)[O-])ccc1Cl	147 to 152
Cc1nc(-c2cccc(C(=O)O)c2)nn1-c1cccc(F)c1	236 to 238
Nc1nc(-c2ccccc2)c(-c2ccc(=O)[nH]n2)s1	> 250
Cc1cccc([N+](=O)[O-])c1C(=O)N[C@@H]1c2cc(OC(F)(F)F)ccc2OC(C)(C)[C@H]1O	204 to 206
COC(=O)Cc1cc(Br)ccc1OCc1ccc(OCc2nc(-c3ccccc3)oc2C)cc1	100 to 101
CCCCc1ccc(CCCCSCc2cccc(/C=C/c3cccc(NC(=O)CC(CC)(CC)C(=O)O)c3)n2)cc1	150 to 151
CNC(=O)c1cc(-c2ccc(S(C)=O)cc2)c(-c2ccc(F)cc2)s1 (configuration not stated)	218 to 220
CNC(=NC#N)NCCSCc1nccc(N)n1	189 to 190
